According to patent publication US6828343B2, “Bicyclic pyrrolyl amides as glycogen phosphorylase inhibitors” (Pfizer, Inc., priority 1999, dated 2004):

- melting point: 108 to 110 °C
SMILES: O=C(N[C@@H](Cc1ccccc1)C(=O)N1CCOCC1)c1cc2cc(Cl)sc2[nH]1 [Example 19, 2-chloro-6H-thieno[2,3-b]pyrrole-5-carboxylic acid [(1S)-benzyl-2-morpholin-4-yl-2-oxo-ethyl]-amide]
